Test systems include HOP-18; DMS-114; SW-620; M19-MEL; U-251; A549; DMS-273; HCT-15; NCI-H23; SK-MEL-2; SNB-19; KM-20L2; NCI/ADR-RES; DLD-1; LXFL 529; Hs-578T; MDA-MB-231; MDA-MB-435; PC-3.
Holding throughout (assay): NCI-60 cell line screen, 48 h

SMILES strings stand for the structures.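 Results reflect a 48-hour exposure of cells in 96-well plates to compound at five concentrations. GI50 is the concentration that inhibits growth by half.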 The source made the active and inactive calls. No stated cut-off is given here; in the data, active = GI50 up to about 1.1 µM and inactive = higher.

In the case of `CC1=C2C3OC(=O)C(C)C3CCC2(C)C=C/C1=N\c1ccccc1` (stereo not drawn), the GI50 was > 57.1 µM (inactive) with HOP-18; > 100 µM (inactive) with DMS-114; > 100 µM (inactive) in the assay on SW-620; > 100 µM (inactive) with M19-MEL; > 100 µM (inactive) in the assay on U-251; > 100 µM (inactive) with A549. The GI50 is > 100 µM (inactive) in the assay on DMS-273; above 100 µM in the assay with HCT-15; > 100 µM (inactive) in the assay with NCI-H23; > 100 µM (inactive) with SK-MEL-2; > 100 µM (inactive) with SNB-19; > 100 µM (inactive) in the assay on KM-20L2. Besides, the GI50 in the assay with NCI/ADR-RES and with DLD-1 was > 100 µM (inactive) each time.
As to `O=C(NCCCl)SCCO`, the GI50 in the assay on DMS-114, with SW-620, in the assay with M19-MEL, with U-251, with A549 and in the assay with DMS-273 was > 100 µM (inactive) each time. Further, the GI50 with HCT-15 was above 100 µM; in the assay on NCI-H23, > 100 µM (inactive); in the assay on SK-MEL-2, > 100 µM (inactive); in the assay on SNB-19, > 100 µM (inactive); in the assay on KM-20L2, > 100 µM (inactive); in the assay with LXFL 529, > 100 µM (inactive). Moreover, the GI50 in the assay on DLD-1 is > 100 µM (inactive).
With `COc1ccc(CCn2cncn2)cc1`, the GI50 in the assay with DMS-114, in the assay with SW-620, in the assay on M19-MEL, with U-251, with A549 and in the assay with DMS-273 was > 100 µM (inactive) in each case. In addition, the GI50 is above 100 µM with HCT-15; > 100 µM (inactive) with NCI-H23; > 100 µM (inactive) in the assay with SNB-19; > 100 µM (inactive) with KM-20L2; > 100 µM (inactive) with LXFL 529; > 100 µM (inactive) with DLD-1.
`O=C1c2ccccc2N(O)C1(c1ccccc1)C1CCCC=C1N1CCOCC1` (stereo not drawn): the GI50 was 50.1 µM (inactive) in the assay on DMS-114; > 100 µM (inactive) with SW-620; > 100 µM (inactive) in the assay on M19-MEL; 87.5 µM (inactive) with U-251; 50.4 µM (inactive) in the assay with A549; > 100 µM (inactive) in the assay on DMS-273. Also, the GI50 in the assay on HCT-15 was 91.2 µM; in the assay with NCI-H23, > 100 µM (inactive); in the assay on SNB-19, 57.9 µM (inactive); with KM-20L2 it was > 100 µM (inactive); with LXFL 529, 68.5 µM (inactive); with DLD-1, > 100 µM (inactive).
As to `CC(=O)Nc1ccc(C(=O)NN2C(=O)C(Cl)/C2=C/c2ccco2)cc1` (stereo not drawn), the GI50 in the assay on HOP-18, in the assay with SW-620, in the assay on M19-MEL, with U-251, in the assay with A549 and with NCI-H23 was > 100 µM (inactive) each time. In addition, the GI50 in the assay with SK-MEL-2, with SNB-19, in the assay with LXFL 529 and in the assay on DLD-1 was > 100 µM (inactive) each time.
`OC[C@H]1C[C@@H]2Cc3ccccc3N2N1`: the GI50 is > 100 µM (inactive) with SW-620; > 100 µM (inactive) with Hs-578T; > 100 µM (inactive) with U-251; > 100 µM (inactive) in the assay on A549; above 100 µM in the assay on HCT-15; > 100 µM (inactive) with NCI-H23. The GI50 in the assay on MDA-MB-231, with SK-MEL-2, with SNB-19, with MDA-MB-435, in the assay on PC-3 and with NCI/ADR-RES was > 100 µM (inactive) throughout.
